Structures are written as SMILES.

T1 sequence (P04637 94-312, change not shown): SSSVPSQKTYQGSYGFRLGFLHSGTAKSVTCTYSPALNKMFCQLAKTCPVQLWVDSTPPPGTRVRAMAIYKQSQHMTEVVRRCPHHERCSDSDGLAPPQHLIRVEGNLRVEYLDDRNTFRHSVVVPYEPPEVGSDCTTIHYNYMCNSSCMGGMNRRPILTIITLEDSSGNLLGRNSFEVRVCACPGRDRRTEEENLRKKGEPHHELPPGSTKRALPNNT

The assay concerns the target T1, p53 Y220C (Homo sapiens, UniProt P04637, Y220C).
T1 construct: The recombinant protein was a truncation mutant containing only amino acids 94-312 of p53; made in house; host or cells: E. coli
As to the kind of experiment: In vitro DNA binding activity assay (HTRF / TR-FRET): stabilization of p53 Y220C and increase of its DNA binding activity. In kind it is biochemical. As to conditions: recombinant His-tagged p53 Y220C DNA binding domain (aa 94-312), biotin-labeled consensus DNA, incubated at 27° C. or 29° C. for 60 min. The method in brief:
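Compounds from 4.5 mM DMSO stocks, 3-fold serial dilutions; room-temperature incubations of 15 and 20 min. SC150 = concentration raising DNA binding by 50% over no-compound control.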
`COc1cc(S(N)(=O)=O)ccc1NCC#Cc1cc2c(N[C@H]3CC[C@H](N4CCC5(CCOC5)CC4)CC3)cccc2n1CC(F)(F)F` [Compound 411A, 3-methoxy-4-{[3-(4-{[(1R,4R)-4-{2-oxa-8-azaspiro[4.5]decan-8-yl}cyclohexyl]amino}-1-(2,2,2-trifluoroethyl)-1H-indol-2-yl)prop-2-yn-1-yl]amino}benzene-1-sulfonamide]: the “SC150 (concentration of the compound required to increase the DNA binding activity by 50%)” value is on record as “+ (+ = 0 μM ≤ SC150 < 0.05 μM)”.

As to `COc1cc(S(C)(=O)=O)ccc1NCC#Cc1cc2c(N[C@H]3CC[C@H](N4CCC5(CCOCC5)CC4)CC3)cccc2n1CC(F)(F)F` [Compound 414A, 2-{3-[(4-methane-sulfonyl-2-methoxy-phenyl)amino]prop-1-yn-1-yl}-N-[(1R,4R)-4-{3-oxa-9-azaspiro[5.5]undecan-9-yl}cyclohexyl]-1-(2,2,2-trifluoroethyl)-1H-indol-4-amine], the “SC150 (concentration of the compound required to increase the DNA binding activity by 50%)” value is “+ (+ = 0 μM ≤ SC150 < 0.05 μM)”. As for `CNC(=O)c1ccc(NCC#Cc2cc3c(N[C@H]4CC[C@H](N5CCC6(CCOCC6)CC5)CC4)cccc3n2CC(F)(F)F)c(OC)c1` [Compound 416A, 3-methoxy-N-methyl-4-{[3-(4-{[(1R,4R)-4-{3-oxa-9-azaspiro[5.5]undecan-9-yl}cyclohexyl]amino}-1-(2,2,2-trifluoroethyl)-1H-indol-2-yl)prop-2-yn-1-yl]amino}benzamide], the entry is “+ (+ = 0 μM ≤ SC150 < 0.05 μM)”. As for `COc1cc(S(N)(=O)=O)ccc1NCC#Cc1cc2c(N[C@H]3CC[C@H](N4CCC5(CCOCC5)CC4)CC3)cccc2n1CC(F)(F)F` [Compound 418A, 3-methoxy-4-{[3-(4-{[(1R,4R)-4-{3-oxa-9-azaspiro[5.5]undecan-9-yl}cyclohexyl]amino}-1-(2,2,2-trifluoroethyl)-1H-indol-2-yl)prop-2-yn-1-yl]amino}benzene-1-sulfonamide], the entry is “+ (+ = 0 μM ≤ SC150 < 0.05 μM)”; as for `CNC(=O)c1ccc(NCC#Cc2cc3c(N[C@H]4CC[C@H](N5CCCC5)CC4)cccc3n2CC(F)(F)F)c(OC)c1` [Compound 420A, 3-methoxy-N-methyl-4-{[3-(4-{[(1R,4R)-4-(pyrrolidin-1-yl)cyclohexyl]amino}-1-(2,2,2-trifluoroethyl)-1H-indol-2-yl)prop-2-yn-1-yl]amino}benzamide], “+ (+ = 0 μM ≤ SC150 < 0.05 μM)”; as for `COc1cc(S(N)(=O)=O)ccc1NCC#Cc1cc2c(N[C@H]3CC[C@H](N4CCCC4)CC3)cccc2n1CC(F)(F)F` [Compound 422A, 3-methoxy-4-{[3-(4-{[(1R,4R)-4-(pyrrolidin-1-yl)cyclohexyl]amino}-1-(2,2,2-trifluoroethyl)-1H-indol-2-yl)prop-2-yn-1-yl]amino}benzene-1-sulfonamide], “+ (+ = 0 μM ≤ SC150 < 0.05 μM)”.

Consider `COc1cc(S(C)(=O)=O)ccc1NCC#Cc1cc2c(N[C@H]3CC[C@H](N4CCCC4)CC3)cccc2n1CC(F)(F)F` [Compound 424A, 2-{3-[(4-methane-sulfonyl-2-methoxy-phenyl)amino]prop-1-yn-1-yl}-N-[(1R,4R)-4-(pyrrolidin-1-yl)cyclohexyl]-1-(2,2,2-trifluoroethyl)-1H-indol-4-amine], for which the “SC150 (concentration of the compound required to increase the DNA binding activity by 50%)” value was “+ (+ = 0 μM ≤ SC150 < 0.05 μM)”.

For the compound `COc1cc(S(C)(=O)=O)ccc1NCC#Cc1cc2c(N[C@H]3CC[C@H](N4CCC(OC)C4)CC3)cccc2n1CC(F)(F)F` (stereo partly drawn) [Compound 426A, 2-{3-[(4-methane-sulfonyl-2-methoxy-phenyl)amino]prop-1-yn-1-yl}-N-[(1R,4R)-4-(3-methoxypyrrolidin-1-yl)cyclohexyl]-1-(2,2,2-trifluoroethyl)-1H-indol-4-amine], the “SC150 (concentration of the compound required to increase the DNA binding activity by 50%)” value is reported as “+ (+ = 0 μM ≤ SC150 < 0.05 μM)”. As for `COc1cc(S(N)(=O)=O)ccc1NCC#Cc1cc2c(N[C@H]3CC[C@H](N4CCC(OC)C4)CC3)cccc2n1CC(F)(F)F` (stereo partly drawn) [Compound 427A, 3-methoxy-4-{[3-(4-{[(1R,4R)-4-(3-methoxypyrrolidin-1-yl)cyclohexyl]amino}-1-(2,2,2-trifluoroethyl)-1H-indol-2-yl)prop-2-yn-1-yl]amino}benzene-1-sulfonamide], the entry is “+ (+ = 0 μM ≤ SC150 < 0.05 μM)”.

Take `CNC(=O)c1ccc(NCC#Cc2cc3c(N[C@H]4CC[C@H](N5CCC(OC)C5)CC4)cccc3n2CC(F)(F)F)c(OC)c1` (stereo partly drawn) [Compound 428A, 3-methoxy-N-methyl-4-{[3-(4-{[(1R,4R)-4-(3-methoxypyrrolidin-1-yl)cyclohexyl]amino}-1-(2,2,2-trifluoroethyl)-1H-indol-2-yl)prop-2-yn-1-yl]amino}benzamide]: the “SC150 (concentration of the compound required to increase the DNA binding activity by 50%)” value was “+ (+ = 0 μM ≤ SC150 < 0.05 μM)”. As for `COc1cc(S(N)(=O)=O)ccc1NCC#Cc1cc2c(N[C@H]3CC[C@H](N4CC5COCC5C4)CC3)cccc2n1CC(F)(F)F` (stereo partly drawn) [Compound 430A, 3-methoxy-4-{[3-(4-{[(1R,4R)-4-{hexahydro-1H-furo[3,4-c]pyrrol-5-yl}cyclohexyl]amino}-1-(2,2,2-trifluoroethyl)-1H-indol-2-yl)prop-2-yn-1-yl]amino}benzene-1-sulfonamide], the entry is “+ (+ = 0 μM ≤ SC150 < 0.05 μM)”.

As to `COc1cc(S(C)(=O)=O)ccc1NCC#Cc1cc2c(N[C@H]3CC[C@H](N4CC5COCC5C4)CC3)cccc2n1CC(F)(F)F` (stereo partly drawn) [Compound 432A, 2-{3-[(4-methane-sulfonyl-2-methoxy-phenyl)amino]prop-1-yn-1-yl}-N-[(1R,4R)-4-{hexahydro-1H-furo[3,4-c]pyrrol-5-yl}cyclohexyl]-1-(2,2,2-trifluoroethyl)-1H-indol-4-amine], the “SC150 (concentration of the compound required to increase the DNA binding activity by 50%)” value is given as “+ (+ = 0 μM ≤ SC150 < 0.05 μM)”. The result for `CNC(=O)c1ccc(NCC#Cc2cc3c(N[C@H]4CC[C@H](N5CC6COCC6C5)CC4)cccc3n2CC(F)(F)F)c(OC)c1` (stereo partly drawn) [Compound 434A, 3-methoxy-N-methyl-4-{[3-(4-{[(1R,4R)-4-{hexahydro-1H-furo[3,4-c]pyrrol-5-yl}cyclohexyl]amino}-1-(2,2,2-trifluoroethyl)-1H-indol-2-yl)prop-2-yn-1-yl]amino}benzamide] reads “+ (+ = 0 μM ≤ SC150 < 0.05 μM)”; that for `COc1cc(S(C)(=O)=O)ccc1NCC#Cc1cc2c(N[C@H]3CC[C@H](N4CCC(C(F)(F)F)CC4)CC3)cccc2n1CC(F)(F)F` [Compound 436A, 2-{3-[(4-methane-sulfonyl-2-methoxy-phenyl)amino]prop-1-yn-1-yl}-N-[(1R,4R)-4-[4-(trifluoromethyl)piperidin-1-yl]cyclohexyl]-1-(2,2,2-trifluoroethyl)-1H-indol-4-amine], “+ (+ = 0 μM ≤ SC150 < 0.05 μM)”; that for `CNC(=O)c1ccc(NCC#Cc2cc3c(N[C@H]4CC[C@H](N5CCC(C(F)(F)F)CC5)CC4)cccc3n2CC(F)(F)F)c(OC)c1` [Compound 438A, 3-methoxy-N-methyl-4-{[3-(4-{[(1R,4R)-4-[4-(trifluoro-methyl)piperidin-1-yl]cyclohexyl]amino}-1-(2,2,2-trifluoroethyl)-1H-indol-2-yl)prop-2-yn-1-yl]amino}benzamide], “+ (+ = 0 μM ≤ SC150 < 0.05 μM)”.

Regarding `COc1cc(S(N)(=O)=O)ccc1NCC#Cc1cc2c(N[C@H]3CC[C@H](N4CCC(C(F)(F)F)CC4)CC3)cccc2n1CC(F)(F)F` [Compound 440A, 3-methoxy-4-{[3-(4-{[(1R,4R)-4-[4-(trifluoromethyl)piperidin-1-yl]cyclohexyl]amino}-1-(2,2,2-trifluoroethyl)-1H-indol-2-yl)prop-2-yn-1-yl]amino}benzene-1-sulfonamide], the “SC150 (concentration of the compound required to increase the DNA binding activity by 50%)” value is “+ (+ = 0 μM ≤ SC150 < 0.05 μM)”. As for `COc1cc(S(C)(=O)=O)ccc1NCC#Cc1cc2c(N[C@H]3CC[C@H](N4CCC(S(C)(=O)=O)CC4)CC3)cccc2n1CC(F)(F)F` [Compound 442A, 2-{3-[(4-methane-sulfonyl-2-methoxy-phenyl)amino]prop-1-yn-1-yl}-N-[(1R,4R)-4-(4-methanesulfonylpiperidin-1-yl)cyclohexyl]-1-(2,2,2-trifluoroethyl)-1H-indol-4-amine], the entry is “+ (+ = 0 μM ≤ SC150 < 0.05 μM)”.

Consider `CNC(=O)c1ccc(NCC#Cc2cc3c(N[C@H]4CC[C@H](N5CCC(S(C)(=O)=O)CC5)CC4)cccc3n2CC(F)(F)F)c(OC)c1` [Compound 444A, 3-methoxy-N-methyl-4-{[3-(4-{[(1R,4R)-4-(4-methane-sulfonylpiperidin-1-yl)cyclohexyl]amino}-1-(2,2,2-trifluoroethyl)-1H-indol-2-yl)prop-2-yn-1-yl]amino}benzamide], for which the “SC150 (concentration of the compound required to increase the DNA binding activity by 50%)” value is reported as “+ (+ = 0 μM ≤ SC150 < 0.05 μM)”.

In the case of `COc1cc(S(N)(=O)=O)ccc1NCC#Cc1cc2c(N[C@H]3CC[C@H](N4CCC(S(C)(=O)=O)CC4)CC3)cccc2n1CC(F)(F)F` [Compound 446A, 3-methoxy-4-{[3-(4-{[(1R,4R)-4-(4-methanesulfonyl-piperidin-1-yl)cyclo-hexyl]amino}-1-(2,2,2-trifluoroethyl)-1H-indol-2-yl)prop-2-yn-1-yl]amino}benzene-1-sulfonamide], the “SC150 (concentration of the compound required to increase the DNA binding activity by 50%)” value was “+ (+ = 0 μM ≤ SC150 < 0.05 μM)”. As for `COc1cc(S(C)(=O)=O)ccc1NCC#Cc1cc2c(N[C@@H]3CCC[C@H](n4nn[nH]c4=O)C3)cccc2n1CC(F)(F)F` [Compound 448A, 1-[(1S,3R)-3-[(2-{3-[(4-methanesulfonyl-2-methoxyphenyl)amino]prop-1-yn-1-yl}-1-(2,2,2-trifluoroethyl)-1H-indol-4-yl)amino]cyclo-hexyl]-4,5-dihydro-1H-1,2,3,4-tetrazol-5-one], the entry is “++ (++ = 0.05 μM ≤ SC150 < 0.1 μM)”.

(Values after US12428406B2 (PMV Pharmaceuticals, Inc., priority 2019, dated 2025).)
